How the values were obtained:
Assay type in all cases: physicochemical
[1] = Liposome size homogeneity (PDI, size distribution) by dynamic light scattering; conditions: for Liposome PDI: DMPC:DOTAP liposome
Description: 1 mL of each of the sample of the lipid dissolution step and 1 mL of a sample obtained by simply mixing the glycolipid of Preparation Example 2-(3) with liposome were added to a cuvette, and a hydrodynamic size and distribution were analyzed using a dynamic light-scattering apparatus (Malvern instrument, ZSP nano) (Table 3, FIGS. 3 and 4). FIG. 3 is a diagram showing a liposome size distribution in a lipid-solubilization step, and FIG. 4 is a diagram showing a liposome size distribution in a step of simply mixing glycolipid with a liposome.

[2] = Liposome size by dynamic light scattering (hydrodynamic size); conditions: for Liposome size (d, nm): DMPC:DOTAP liposome
Description: (§1) 1 mL of each of the sample of the lipid dissolution step and 1 mL of a sample obtained by simply mixing the glycolipid of Preparation Example 2-(3) with liposome were added to a cuvette, and a hydrodynamic size was measured using a dynamic light-scattering apparatus (Malvern instrument, ZSP nano) (Table 2).

[3] = Liposome surface charge (zeta potential); conditions: for Liposome surface charge (mV): DMPC:DOTAP liposome
Description: as §1, with “with a” for “with”, “loaded on” for “added to”, “cuvette for measuring a surface charge (zeta potential),” for “cuvette,”, “surface charge” for “hydrodynamic size”, “4).” for “2).”

[4] = lipid dissolution step, glycolipid content 1 mol %
[5] = lipid dissolution step, glycolipid content 3 mol %
[6] = lipid dissolution step, glycolipid content 6 mol %
[7] = step of simple mixing with liposome, glycolipid content 1 mol %
[8] = step of simple mixing with liposome, glycolipid content 3 mol %
[9] = step of simple mixing with liposome, glycolipid content 6 mol %

Monophosphoryl lipid A [MPL]
Liposome PDI [1, 4]: 0.353
Liposome PDI [1, 5]: 0.412
Liposome PDI [1, 6]: 0.405
Liposome PDI [1, 7]: 0.552
Liposome PDI [1, 8]: 0.793
Liposome PDI [1, 9]: 0.887
Liposome size distribution ([1]; glycolipid incorporated during lipid dissolution (encapsulated liposome), FIG. 3): not uniform
Dispersibility of the liposome (PDI) ([1]; over glycolipid contents 6, 3, 1 mol %): increased depending on concentration
Liposome size distribution ([1]; simple mixing of liposome with glycolipid (adsorbed liposome), FIG. 4): not uniform
Liposome size (d, nm) ([2]; glycolipid incorporated in lipid dissolution step, glycolipid content 6 mol %): 355.4 nm
Liposome size (d, nm) [2, 4]: 367.9 nm
Liposome size (d, nm) [2, 5]: 309.2 nm
Liposome size (d, nm) [2, 7]: 694.9 nm
Liposome size (d, nm) [2, 8]: 1206.1 nm
Liposome size (d, nm) [2, 9]: 1538.7 nm
Change of liposome size on simple mixing with a liposome ([2]; glycolipid simply mixed with liposome): tended to increase in size
Liposome surface charge (mV) [3, 4]: 57.0 ± 3.0 mV
Liposome surface charge (mV) [3, 5]: 56.2 ± 0.6 mV
Liposome surface charge (mV) [3, 6]: 23.7 ± 0.6 mV
Liposome surface charge (mV) [3, 7]: 57.8 ± 1.6 mV
Liposome surface charge (mV) [3, 8]: 56.9 ± 3.4 mV
Liposome surface charge (mV) [3, 9]: 48.5 ± 1.4 mV
Surface charge change ([3]; mixed at a high content of 6 mol %): decreased sharply

From US10874733B2 (priority 2016, dated 2020)
